{"source": "patent US20070149465A1", "about": "“COMPOSITIONS AND METHODS FOR PREVENTION AND TREATMENT OF CACHEXIA” (priority 2005, published 2007)", "key": {"[1]": {"test_system": "Saline-inoculated rats", "test": "Rat AH130 experiments, saline-inoculated control rats given drug", "format": "in vivo, female Wistar rats", "settings": "for Carcass Weights Mean / Gastrocnemius Weights Mean / Heart Weights Mean: Saline, Day 5, normalized to 100 g Day 5 Total Body Weight", "description": "(§1) Following the method of Busquets et al (Busquets S, et al: Cancer Res 64:6725-31, 2004), female Wistar rats were inoculated (Day 0) intra-peritoneally (i.p.) with 2×10^7 cells/animal of Yoshida AH-130 ascites hepatoma (AH) cells. Control animals were inoculated with an equivalent amount of sterile saline solution. […] The animals were sacrificed on Day 5. Upon sacrifice, wet weights of heart and gastrocnemius muscle were determined. Carcass (after gastrocnemius, heart, and ascites removal) weight was also determined upon sacrifice.\n(§2) Treatment Group=Inoculation Type/Vehicle, or Treatment Group=Inoculation Type/F(x)R(y) where, Inoculation Type is either AH or Saline, F is formoterol fumarate, R is roxithromycin, and the parenthetical values are formoterol fumarate and roxithromycin doses (i.p. in mg/kg)."}, "[2]": {"test": "Aqueous solubility of roxithromycin (pH, buffer, ethanol)", "format": "physicochemical", "settings": "25 °C, thermodynamic from solid", "description": "The solutions were syringe-filtered and analyzed by HPLC for [roxithromycin]. Roxithromycin Potency was assayed by a reverse-phase HPLC method that meets the requirements of the European Pharmacopeia (EP) Monograph for roxithromycin. Solution pH values were determined per USP <791> and solution osmolality values were determined per USP <785>. Aqueous solubility limits were determined for roxithromycin as a function of buffer type (phosphate versus citrate), buffer concentration, pH, and added co-solvent (ethanol)."}, "[3]": {"test_system": "AH-inoculated rats", "test": "Rat AH130 Ascites Hepatoma Model of Cancer Cachexia, AH-inoculated rats", "format": "in vivo, female Wistar rats", "description": "as §1, §2"}, "[4]": {"settings": "Exp 2 Group 9, F 0, R 5 mg/kg i.p."}, "[5]": {"settings": "Exp 3 Group 15, F 0, R 40 mg/kg i.p."}, "[6]": {"settings": "Exp 1 Group 4, AH, F 0, R 5 mg/kg i.p., Day 5, normalized to 100 g Day 5 Total Body Weight"}, "[7]": {"settings": "Exp 4 Group 21, AH, F 0, R 50 mg/kg i.p., Day 5, sample weight normalized to 100 g Day 5 Total Body Weight"}, "[8]": {"settings": "Experiment 4, AH/F(0)R(50) group"}}}
{"compound": "CC[C@H]1OC(=O)[C@H](C)[C@@H](O[C@H]2C[C@@](C)(OC)[C@@H](O)[C@H](C)O2)[C@H](C)[C@@H](O[C@@H]2O[C@H](C)C[C@H](N(C)C)[C@H]2O)[C@](C)(O)C[C@@H](C)/C(=N\\OCOCCOC)[C@H](C)[C@@H](O)[C@]1(C)O", "note": "[roxithromycin]", "values": [{"measurement": "Carcass Weights Mean", "setting": "[1]; [4]", "value": 97.6, "unit": "g"}, {"measurement": "Gastrocnemius Weights Mean", "setting": "[1]; [4]", "value": 0.575, "unit": "g"}, {"measurement": "Heart Weights Mean", "setting": "[1]; [4]", "value": 0.390, "unit": "g"}, {"measurement": "Carcass Weights Mean", "setting": "[1]; [5]", "value": 96.5, "unit": "g"}, {"measurement": "Gastrocnemius Weights Mean", "setting": "[1]; [5]", "value": 0.529, "unit": "g"}, {"measurement": "Heart Weights Mean", "setting": "[1]; [5]", "value": 0.400, "unit": "g"}, {"measurement": "gastrocnemius muscle weights compared with Saline/vehicle group", "setting": "[1]; Experiment 2, Saline/F(0)R(5) group", "value": "approximately the same"}, {"measurement": "gastrocnemius muscle weights compared with Saline/vehicle control group", "setting": "[1]; Experiment 3, Saline/F(0)R(40) group", "value": "not different"}, {"measurement": "solubility at 24 h", "setting": "[2]; citrate buffer, pH 4, aqueous buffer, 20 mM citrate, pH 4", "value": 4130, "unit": "µg/mL"}, {"measurement": "solubility at 24 h", "setting": "[2]; citrate buffer, pH 4, aqueous buffer, 50 mM citrate, pH 4", "value": 4610, "unit": "µg/mL"}, {"measurement": "solubility at 24 h", "setting": "[2]; citrate buffer, pH 4, aqueous buffer, 100 mM citrate, pH 4", "value": 1890, "unit": "µg/mL"}, {"measurement": "solubility at 24 h", "setting": "[2]; citrate buffer, pH 4, aqueous buffer, 200 mM citrate, pH 4", "value": 2740, "unit": "µg/mL"}, {"measurement": "solubility at 24 h", "setting": "[2]; citrate buffer, pH 5, aqueous buffer, 20 mM citrate, pH 5", "value": 3540, "unit": "µg/mL"}, {"measurement": "solubility at 24 h", "setting": "[2]; citrate buffer, pH 5, aqueous buffer, 50 mM citrate, pH 5", "value": 3570, "unit": "µg/mL"}, {"measurement": "solubility at 24 h", "setting": "[2]; citrate buffer, pH 5, aqueous buffer, 100 mM citrate, pH 5", "value": 2770, "unit": "µg/mL"}, {"measurement": "solubility at 24 h", "setting": "[2]; citrate buffer, pH 5, aqueous buffer, 200 mM citrate, pH 5", "value": 1900, "unit": "µg/mL"}, {"measurement": "solubility at 24 h", "setting": "[2]; citrate buffer, pH 6, aqueous buffer, 20 mM citrate, pH 6", "value": 2450, "unit": "µg/mL"}, {"measurement": "solubility at 24 h", "setting": "[2]; citrate buffer, pH 6, aqueous buffer, 50 mM citrate, pH 6", "value": 2760, "unit": "µg/mL"}, {"measurement": "solubility at 24 h", "setting": "[2]; citrate buffer, pH 6, aqueous buffer, 100 mM citrate, pH 6", "value": 2300, "unit": "µg/mL"}, {"measurement": "solubility at 24 h", "setting": "[2]; citrate buffer, pH 6, aqueous buffer, 200 mM citrate, pH 6", "value": 1720, "unit": "µg/mL"}, {"measurement": "solubility at 24 h", "setting": "[2]; citrate buffer, pH 7, aqueous buffer, 20 mM citrate, pH 7", "value": 500, "unit": "µg/mL"}, {"measurement": "solubility at 24 h", "setting": "[2]; citrate buffer, pH 7, aqueous buffer, 50 mM citrate, pH 7", "value": 980, "unit": "µg/mL"}, {"measurement": "solubility at 24 h", "setting": "[2]; citrate buffer, pH 7, aqueous buffer, 100 mM citrate, pH 7", "value": 1230, "unit": "µg/mL"}, {"measurement": "solubility at 24 h", "setting": "[2]; citrate buffer, pH 7, aqueous buffer, 200 mM citrate, pH 7", "value": 1250, "unit": "µg/mL"}, {"measurement": "solubility at 24 h", "setting": "[2]; phosphate buffer with ethanol co-solvent, pH 5, aqueous with cosolvent or surfactant or cyclodextrin, pH 5, 10 mM phosphate, 5% ethanol", "value": 3500, "unit": "µg/mL"}, {"measurement": "solubility at 24 h", "setting": "[2]; phosphate buffer with ethanol co-solvent, pH 5, aqueous with cosolvent or surfactant or cyclodextrin, pH 5, 10 mM phosphate, 10% ethanol", "value": 3800, "unit": "µg/mL"}, {"measurement": "solubility at 24 h", "setting": "[2]; phosphate buffer with ethanol co-solvent, pH 5, aqueous with cosolvent or surfactant or cyclodextrin, pH 5, 20 mM phosphate, 5% ethanol", "value": 5500, "unit": "µg/mL"}, {"measurement": "solubility at 24 h", "setting": "[2]; phosphate buffer with ethanol co-solvent, pH 5, aqueous with cosolvent or surfactant or cyclodextrin, pH 5, 20 mM phosphate, 10% ethanol", "value": 6000, "unit": "µg/mL"}, {"measurement": "solubility at 24 h", "setting": "[2]; phosphate buffer with ethanol co-solvent, pH 5, aqueous with cosolvent or surfactant or cyclodextrin, pH 5, 50 mM phosphate, 5% ethanol", "value": 8300, "unit": "µg/mL"}, {"measurement": "solubility at 24 h", "setting": "[2]; phosphate buffer with ethanol co-solvent, pH 5, aqueous with cosolvent or surfactant or cyclodextrin, pH 5, 50 mM phosphate, 10% ethanol", "value": 9200, "unit": "µg/mL"}, {"measurement": "solubility at 24 h", "setting": "[2]; phosphate buffer with ethanol co-solvent, pH 6, aqueous with cosolvent or surfactant or cyclodextrin, pH 6, 10 mM phosphate, 5% ethanol", "value": 4100, "unit": "µg/mL"}, {"measurement": "solubility at 24 h", "setting": "[2]; phosphate buffer with ethanol co-solvent, pH 6, aqueous with cosolvent or surfactant or cyclodextrin, pH 6, 10 mM phosphate, 10% ethanol", "value": 3900, "unit": "µg/mL"}, {"measurement": "solubility at 24 h", "setting": "[2]; phosphate buffer with ethanol co-solvent, pH 6, aqueous with cosolvent or surfactant or cyclodextrin, pH 6, 20 mM phosphate, 5% ethanol", "value": 4600, "unit": "µg/mL"}, {"measurement": "solubility at 24 h", "setting": "[2]; phosphate buffer with ethanol co-solvent, pH 6, aqueous with cosolvent or surfactant or cyclodextrin, pH 6, 20 mM phosphate, 10% ethanol", "value": 5000, "unit": "µg/mL"}, {"measurement": "solubility at 24 h", "setting": "[2]; phosphate buffer with ethanol co-solvent, pH 6, aqueous with cosolvent or surfactant or cyclodextrin, pH 6, 50 mM phosphate, 5% ethanol", "value": 8100, "unit": "µg/mL"}, {"measurement": "solubility at 24 h", "setting": "[2]; phosphate buffer with ethanol co-solvent, pH 6, aqueous with cosolvent or surfactant or cyclodextrin, pH 6, 50 mM phosphate, 10% ethanol", "value": 9300, "unit": "µg/mL"}, {"measurement": "solubility at 24 h", "setting": "[2]; phosphate buffer with ethanol co-solvent, pH 7, aqueous with cosolvent or surfactant or cyclodextrin, pH 7, 10 mM phosphate, 5% ethanol", "value": 1800, "unit": "µg/mL"}, {"measurement": "solubility at 24 h", "setting": "[2]; phosphate buffer with ethanol co-solvent, pH 7, aqueous with cosolvent or surfactant or cyclodextrin, pH 7, 10 mM phosphate, 10% ethanol", "value": 1700, "unit": "µg/mL"}, {"measurement": "solubility at 24 h", "setting": "[2]; phosphate buffer with ethanol co-solvent, pH 7, aqueous with cosolvent or surfactant or cyclodextrin, pH 7, 20 mM phosphate, 5% ethanol", "value": 1700, "unit": "µg/mL"}, {"measurement": "solubility at 24 h", "setting": "[2]; phosphate buffer with ethanol co-solvent, pH 7, aqueous with cosolvent or surfactant or cyclodextrin, pH 7, 20 mM phosphate, 10% ethanol", "value": 2100, "unit": "µg/mL"}, {"measurement": "solubility at 24 h", "setting": "[2]; phosphate buffer with ethanol co-solvent, pH 7, aqueous with cosolvent or surfactant or cyclodextrin, pH 7, 50 mM phosphate, 5% ethanol", "value": 2300, "unit": "µg/mL"}, {"measurement": "solubility at 24 h", "setting": "[2]; phosphate buffer with ethanol co-solvent, pH 7, aqueous with cosolvent or surfactant or cyclodextrin, pH 7, 50 mM phosphate, 10% ethanol", "value": 3100, "unit": "µg/mL"}, {"measurement": "solubility at 24 h", "setting": "[2]; phosphate buffer, pH 5, aqueous buffer, pH 5, 10 mM phosphate, 0% ethanol", "value": 3200, "unit": "µg/mL"}, {"measurement": "solubility at 24 h", "setting": "[2]; phosphate buffer, pH 5, aqueous buffer, pH 5, 20 mM phosphate, 0% ethanol", "value": 5200, "unit": "µg/mL"}, {"measurement": "solubility at 24 h", "setting": "[2]; phosphate buffer, pH 5, aqueous buffer, pH 5, 50 mM phosphate, 0% ethanol", "value": 7200, "unit": "µg/mL"}, {"measurement": "solubility at 24 h", "setting": "[2]; phosphate buffer, pH 6, aqueous buffer, pH 6, 10 mM phosphate, 0% ethanol", "value": 2800, "unit": "µg/mL"}, {"measurement": "solubility at 24 h", "setting": "[2]; phosphate buffer, pH 6, aqueous buffer, pH 6, 20 mM phosphate, 0% ethanol", "value": 4200, "unit": "µg/mL"}, {"measurement": "solubility at 24 h", "setting": "[2]; phosphate buffer, pH 6, aqueous buffer, pH 6, 50 mM phosphate, 0% ethanol", "value": 6700, "unit": "µg/mL"}, {"measurement": "solubility at 24 h", "setting": "[2]; phosphate buffer, pH 7, aqueous buffer, pH 7, 10 mM phosphate, 0% ethanol", "value": 1400, "unit": "µg/mL"}, {"measurement": "solubility at 24 h", "setting": "[2]; phosphate buffer, pH 7, aqueous buffer, pH 7, 20 mM phosphate, 0% ethanol", "value": 1300, "unit": "µg/mL"}, {"measurement": "solubility at 24 h", "setting": "[2]; phosphate buffer, pH 7, aqueous buffer, pH 7, 50 mM phosphate, 0% ethanol", "value": 2000, "unit": "µg/mL"}, {"measurement": "Carcass Weights Mean", "setting": "[3]; [6]", "value": 94.35, "unit": "g"}, {"measurement": "Gastrocnemius Weights Mean", "setting": "[3]; [6]", "value": 0.493, "unit": "g"}, {"measurement": "Heart Weights Mean", "setting": "[3]; [6]", "value": 0.320, "unit": "g"}, {"measurement": "Carcass Mean", "setting": "[3]; [7]", "value": 94.1}, {"measurement": "Gastrocnemius Mean", "setting": "[3]; [7]", "value": 0.500}, {"measurement": "Heart Mean", "setting": "[3]; [7]", "value": 0.338}, {"measurement": "gastrocnemius muscle loss compared with AH/vehicle group", "setting": "[3]; Experiment 1, AH/F(0)R(5) group", "value": "approximately the same amount"}, {"measurement": "gastrocnemius muscle weights compared with AH/vehicle group", "setting": "[3]; [8]", "value": "significantly larger"}, {"measurement": "gastrocnemius weights compared with AH/F(1)R(0) group", "setting": "[3]; [8]", "value": "essentially identical"}, {"measurement": "gastrocnemius weights compared with AH/F(1)R(50) group", "setting": "[3]; [8]", "value": "slightly less"}, {"measurement": "muscle wasting associated with the AH rat model", "setting": "[3]; summary of Experiments 1-4", "value": "prevents muscle wasting"}, {"measurement": "preventing AH-induced gastrocnemius muscle loss, roxithromycin alone compared with formoterol fumarate alone", "setting": "[3]; summary of Experiments 1-4", "value": "effective as formoterol fumarate alone"}]}
